Data: patent US9926293B2, “Multivalent RAS binding compounds” (THE TRUSTEES OF COLUMBIA UNIVERSITY IN THE CITY OF NEW YORK, priority 2014, dated 2018)

What was measured:
[1] = system: MDA-MB-231 cell line (KRAS^G13D); test: Multicellular tumor spheroids in low adherence plates; format: cell-based; settings: 72 hours; for size of multicellular tumor spheroids: low-adherence plates
Method: Multicellular Tumor Spheroids
Multicellular tumor spheroids (MCTSs) were grown in 96-well Corningware Ultra Low Attachment (ULA) Plates (CLS 3474). 100 μL of cell suspension containing 2×10^4 cells/ml were added to each well of the ULA plate containing 100 μL of a 2× solution of the desired concentration of compounds. Cells were incubated at 37° C., 5% CO2 for 72 hours to allow for MCTS formation. After 72 hours, 50 μL of a 50% solution of Alamar blue and medium was added and incubated for 12 hours prior to measurements on a Victor3 plate reader as previously described.

[2] = system: Calu-1 (KRAS G12C); test: Cell viability assay (384-well, Alamar blue); format: cell-based; settings: Homo sapiens, Calu-1, 48 h
Method: (§1) All cell culture assays were incubated at 37° C., 5% CO2 in media containing Dulbecco's Modified Eagle Medium (DMEM) with 10% fetal bovine serum (FBS) and 1% penicillin-streptomycin (PS). 384-well format for EC50 determination: cells were trypsinized, counted, and seeded into 384-well plates at 1,000 cells/well. After 12-16 hours, compounds (as 50 mM stocks in DMSO) were arrayed in an 8- or 16-point dilution series in 384-well polypropylene plates. Compound solutions were transferred at a 1:5 dilution into the assay plates. After 48 hours, a 50% Alamar blue solution was added to a final concentration of 10% Alamar blue. After 6 hours of incubation, fluorescence intensity was determined using a Victor3 plate reader (Perkin Elmer) with a 535 nm excitation filter and a 590 nm emission filter. All compound measurements were performed in triplicate. For experiments performed in 6-well format, cells were trypsinized, counted, and seeded into 6-well plates at 200,000 cells per well 16 h prior to use. Media was then aspirated and replaced with 2 mL of media containing compounds at the indicated concentrations (from 10 mM stocks in DMSO). After 24 hours, cells were trypsinized and viability was determined using Trypan Blue exclusion assay.

[3] = system: U2OS (WT); test: Cell viability assay (384-well, Alamar blue); format: cell-based; settings: Homo sapiens, Table 7, 48 hours, 8-point dilution series
Method: as §1

[4] = system: BxPC-3 (WT); test: Cell viability assay (384-well, Alamar blue); format: cell-based; settings: Homo sapiens, Table 7, 48 hours, 8-point dilution series
Method: as §1

[5] = system: HPAFII (KRAS G12D); test: Cell viability assay (384-well, Alamar blue); format: cell-based; settings: Homo sapiens, HPAF-II, 48 h
Method: as §1

[6] = system: HT1080 (NRAS Q61K); test: Cell viability assay (384-well, Alamar blue); format: cell-based; settings: Homo sapiens, HT-1080, 48 h
Method: as §1

[7] = system: Panc-1 (KRAS G12D); test: Cell viability assay (384-well, Alamar blue); format: cell-based; settings: Homo sapiens, PANC-1, 48 h
Method: as §1

[8] = system: BJeLR (HRAS G12V); test: Cell viability assay (384-well, Alamar blue); format: cell-based; settings: 48 h
Method: as §1

[9] = system: SW480 (KRAS G12V); test: Cell viability assay (384-well, Alamar blue); format: cell-based; settings: Homo sapiens, SW480, 48 h
Method: as §1

[10] = system: MIA Paca-2 (KRAS G12C); test: Cell viability assay (384-well, Alamar blue); format: cell-based; settings: Homo sapiens, MIA PaCa-2, 48 h
Method: as §1

[11] = system: MDA-MB-231 (KRAS G13D); test: Cell viability assay (384-well, Alamar blue); format: cell-based; settings: Homo sapiens, MDA-MB-231, 48 h
Method: as §1

[12] = Aqueous solubility as noted during MST; format: physicochemical; settings: noted in MST buffer
[13] = system: phosphorylated ERK in BJeLR (HRAS^G12V); test: Western blot of phosphorylated ERK; format: cell-based; settings: 2 μM and 8 μM, 24 hours, serum free
Method: FIG. 19A-FIG. 19B show BJeLR cells were treated with DMSO, RAS inhibitor at 2 μM and 8 μM, U0126 at 8 μM, or BEZ-235 at 0.2 μM for 24 hours under serum free conditions. Cells were then lysed and the lysate was subjected to detection of phosphorylated Erk and total Erk by western blotting (FIG. 19A). Three independent experiments yielded essentially equivalent results.
BJeLR cells were seeded in 60 mm dishes at 1 million cells/dish in media containing DMEM and 10% FBS with 1% penicillin and streptomycin (PS), 12-16 hours prior to use. The medium was then aspirated and compounds added as solutions in serum free medium (DMEM with 1% PS) to the dishes and treated for 24 hours or at the indicated time points. Following treatment, the medium was aspirated from each dish and cells were washed twice with PBS. […] Antibodies for pERK1/2, ERK1/2, pAKT ser473, AKT, pan-RAS, RALA, PI3Kgamma (Cell signaling), and RAF-1 (Santa Cruz) were detected using a goat anti-rabbit or goat anti-mouse IgG antibody conjugated to an IRdye at 800CW and 680CW conjugated, respectively (Li-COR biosciences).

[14] = Table 7, 8-point dilution series
[15] = Table 8, MDA-MB-231 (KRAS^G13O), 384-well, alamar blue

SMILES	size of multicellular tumor spheroids [1]	EC50 [2, 14] [µM]	EC50 ([2]; Table 8, 384-well, alamar blue) [µM]	EC50 [3] [µM]	EC50 [4] [µM]	EC50 [5, 14] [µM]	EC50 ([5]; Table 8, 384-well, alamar blue) [µM]	EC50 [6, 14] [µM]	EC50 ([6]; Table 8, 384-well, alamar blue) [µM]	EC50 [7, 14] [µM]	EC50 ([7]; Table 8, 384-well, alamar blue) [µM]	EC50 [8, 14] [µM]	EC50 ([8]; Table 8, 384-well, alamar blue) [µM]	EC50 [9, 14] [µM]	EC50 ([9]; Table 8, 384-well, alamar blue) [µM]	EC50 [10, 14] [µM]	EC50 ([10]; Table 8, 384-well, alamar blue) [µM]	EC50 [11, 14] [µM]	EC50 [11, 15] [µM]	aqueous solubility [12]	other results
NC1(C(=O)NCCCn2cc(-c3ccc(OC(F)(F)F)cc3)c3cc(CN4CCN(Cc5c(Cl)cccc5Cl)CC4)ccc32)CCNCC1 [Compound 31MEW44, 4-amino-N-(3-(5-((4-(2,6-dichlorobenzyl)piperazin-1-yl)methyl)-3-(4-(trifluoromethoxy)phenyl)-1H-indol-1-yl)propyl)piperidine-4-carboxamide]	decreased in size in a dose-dependent manner	3.6	3.6	5.03	5.29	6.02	5.2	2.47	1.1	2.06	5.1	3.95	4	2.18	2.2	2.81	3.2	2.26	2.3	more soluble	effect on three dimensional multicellular spheroids ([1]; 20 μM): killed; pERK abundance [13]: effectively decreased pERK abundance in a dose-dependent manner
NC1(C(=O)NCCCn2cc(-c3cccc(F)c3)c3c(CN4CCN(CCOc5ccc(Cl)cc5)CC4)cccc32)CCNCC1 [Compound 34MEW43, 4-amino-N-(3-(4-((4-(2-(4-chlorophenoxy)ethyl)piperazin-1-yl)methyl)-3-(3-fluorophenyl)-1H-indol-1-yl)propyl)piperidine-4-carboxamide]	decreased in size in a dose-dependent manner	9.42	9.4	12.3	13.1	16.4	16	5.17	5.2	5.96	6	9.71	9.7	7.06	7.1	8.45	8.5	5.63	5.6	low aqueous solubility	pERK abundance [13]: effectively decreased pERK abundance in a dose-dependent manner
